Measured values: the supplement of paper PMC6045584
± gives the standard deviation of the averaged measurements.

How the values were obtained:
CRIZOTINIB = compound: C[C@@H](Oc1cc(-c2cnn(C3CCNCC3)c2)cnc1N)c1c(Cl)ccc(F)c1Cl [CRIZOTINIB]; experiment: surviving fraction relative to DMSO-only wells; higher = less growth inhibition; settings: exposure time: 5 days
In short: (§1)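 Each tumour cell line was screened three times, and only lines with replicate Pearson r >0.7 and median Z' >0.3 were kept. Cells in log phase were seeded at 250–500 per well in 384-well plates, left 24 hours, then exposed continuously for five days to inhibitors at 0.5, 1, 5, 10, 50, 100, 500 and 1000 nM. Viability was read as CellTiter-Glo luminescence, with surviving fraction normalised to the median of DMSO-only wells.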

[1] = compound: CNCc1ccc(-c2[nH]c3cc(F)cc4c3c2CCNC4=O)cc1; experiment: as above; settings: exposure time: 5 days
In short: as §1

## SG32 HEADNECK
CRIZOTINIB; 0.5 nM
  surviving fraction: 1.09 ± 0.096
CRIZOTINIB; 1 nM
  surviving fraction: 1.05 ± 0.096
CRIZOTINIB; 5 nM
  surviving fraction: 1.21 ± 0.066
CRIZOTINIB; 10 nM
  surviving fraction: 0.936 ± 0.088
CRIZOTINIB; 100 nM
  surviving fraction: 1.01 ± 0.12
CRIZOTINIB; 500 nM
  surviving fraction: 0.541 ± 0.036
CRIZOTINIB; 1000 nM
  surviving fraction: 0.352 ± 0.016
[1]; 0.5 nM
  surviving fraction: 0.993 ± 0.27
[1]; 1 nM
  surviving fraction: 1.01 ± 0.2
[1]; 5 nM
  surviving fraction: 0.984 ± 0.17
[1]; 10 nM
  surviving fraction: 1.02 ± 0.035
[1]; 50 nM
  surviving fraction: 0.704 ± 0.061
[1]; 100 nM
  surviving fraction: 0.716 ± 0.14
[1]; 500 nM
  surviving fraction: 0.682 ± 0.075
[1]; 1000 nM
  surviving fraction: 0.566 ± 0.17

## SG43 HEADNECK
CRIZOTINIB; 0.5 nM
  surviving fraction: 1.28 ± 0.25
CRIZOTINIB; 1 nM
  surviving fraction: 1.06 ± 0.15
CRIZOTINIB; 5 nM
  surviving fraction: 1.02 ± 0.062
CRIZOTINIB; 10 nM
  surviving fraction: 0.947 ± 0.31
CRIZOTINIB; 50 nM
  surviving fraction: 0.87 ± 0.073
CRIZOTINIB; 100 nM
  surviving fraction: 0.756 ± 0.094
CRIZOTINIB; 500 nM
  surviving fraction: 0.586 ± 0.027
CRIZOTINIB; 1000 nM
  surviving fraction: 0.271 ± 0.03
[1]; 0.5 nM
  surviving fraction: 1.13 ± 0.22
[1]; 1 nM
  surviving fraction: 1.05 ± 0.17
[1]; 5 nM
  surviving fraction: 0.927 ± 0.14
[1]; 10 nM
  surviving fraction: 0.82 ± 0.18
[1]; 50 nM
  surviving fraction: 1.06 ± 0.26
[1]; 100 nM
  surviving fraction: 1.13 ± 0.24
[1]; 500 nM
  surviving fraction: 1.15 ± 0.14
[1]; 1000 nM
  surviving fraction: 1.46 ± 0.17

## SIHA CERVIX
CRIZOTINIB; 0.5 nM
  surviving fraction: 1.08 ± 0.044
CRIZOTINIB; 1 nM
  surviving fraction: 1.06 ± 0.079
CRIZOTINIB; 5 nM
  surviving fraction: 1.12 ± 0.053
CRIZOTINIB; 10 nM
  surviving fraction: 1.14 ± 0.061
CRIZOTINIB; 50 nM
  surviving fraction: 1.06 ± 0.046
CRIZOTINIB; 100 nM
  surviving fraction: 1.09 ± 0.059
CRIZOTINIB; 500 nM
  surviving fraction: 0.9 ± 0.028
CRIZOTINIB; 1000 nM
  surviving fraction: 0.662 ± 0.014
[1]; 0.5 nM
  surviving fraction: 0.984 ± 0.028
[1]; 1 nM
  surviving fraction: 1.06 ± 0.13
[1]; 5 nM
  surviving fraction: 1.09 ± 0.03
[1]; 10 nM
  surviving fraction: 1.01 ± 0.035
[1]; 50 nM
  surviving fraction: 0.907 ± 0.064
[1]; 100 nM
  surviving fraction: 0.934 ± 0.023
[1]; 500 nM
  surviving fraction: 1.03 ± 0.021
[1]; 1000 nM
  surviving fraction: 0.832 ± 0.037

## SJSA1 BONE
CRIZOTINIB; 0.5 nM
  surviving fraction: 1.72 ± 0.049
CRIZOTINIB; 1 nM
  surviving fraction: 1.69 ± 0.11
CRIZOTINIB; 5 nM
  surviving fraction: 1.65 ± 0.11
CRIZOTINIB; 10 nM
  surviving fraction: 1.719 ± 0.008
CRIZOTINIB; 50 nM
  surviving fraction: 0.796 ± 0.079
CRIZOTINIB; 100 nM
  surviving fraction: 1.57 ± 0.021
CRIZOTINIB; 500 nM
  surviving fraction: 1.62 ± 0.037
CRIZOTINIB; 1000 nM
  surviving fraction: 1.06 ± 0.11
[1]; 0.5 nM
  surviving fraction: 1.35 ± 0.059
[1]; 1 nM
  surviving fraction: 1.7 ± 0.1
[1]; 5 nM
  surviving fraction: 1.6 ± 0.045
[1]; 10 nM
  surviving fraction: 1.8 ± 0.1
[1]; 50 nM
  surviving fraction: 1.7 ± 0.073
[1]; 100 nM
  surviving fraction: 1.76 ± 0.059
[1]; 500 nM
  surviving fraction: 1.65 ± 0.017
[1]; 1000 nM
  surviving fraction: 1.74 ± 0.068

## SKBR3 BREAST
CRIZOTINIB; 0.5 nM
  surviving fraction: 1.12 ± 0.084
CRIZOTINIB; 1 nM
  surviving fraction: 1.1 ± 0.046
CRIZOTINIB; 5 nM
  surviving fraction: 1.09 ± 0.03
CRIZOTINIB; 10 nM
  surviving fraction: 1.14 ± 0.25
CRIZOTINIB; 100 nM
  surviving fraction: 1.03 ± 0.046
CRIZOTINIB; 500 nM
  surviving fraction: 1 ± 0.12
[1]; 0.5 nM
  surviving fraction: 0.907 ± 0.11
[1]; 1 nM
  surviving fraction: 0.895 ± 0.12
[1]; 5 nM
  surviving fraction: 0.9 ± 0.14
[1]; 10 nM
  surviving fraction: 0.841 ± 0.11
[1]; 50 nM
  surviving fraction: 0.703 ± 0.1
[1]; 100 nM
  surviving fraction: 0.813 ± 0.052
[1]; 500 nM
  surviving fraction: 0.733 ± 0.14
[1]; 1000 nM
  surviving fraction: 0.734 ± 0.026

## SNU475 LIVER
CRIZOTINIB; 0.5 nM
  surviving fraction: 1.03 ± 0.029
CRIZOTINIB; 1 nM
  surviving fraction: 1.08 ± 0.012
CRIZOTINIB; 5 nM
  surviving fraction: 1.08 ± 0.062
CRIZOTINIB; 10 nM
  surviving fraction: 1.1 ± 0.027
CRIZOTINIB; 50 nM
  surviving fraction: 1.01 ± 0.016
CRIZOTINIB; 100 nM
  surviving fraction: 1.02 ± 0.03
CRIZOTINIB; 500 nM
  surviving fraction: 0.948 ± 0.052
CRIZOTINIB; 1000 nM
  surviving fraction: 0.809 ± 0.024
[1]; 0.5 nM
  surviving fraction: 0.999 ± 0.052
[1]; 1 nM
  surviving fraction: 0.982 ± 0.039
[1]; 5 nM
  surviving fraction: 0.992 ± 0.065
[1]; 10 nM
  surviving fraction: 0.99 ± 0.026
[1]; 50 nM
  surviving fraction: 0.919 ± 0.027
[1]; 100 nM
  surviving fraction: 0.916 ± 0.028
[1]; 500 nM
  surviving fraction: 0.863 ± 0.053
[1]; 1000 nM
  surviving fraction: 0.892 ± 0.043

## SUM44 BREAST
CRIZOTINIB; 0.5 nM
  surviving fraction: 1.28 ± 0.41
CRIZOTINIB; 1 nM
  surviving fraction: 1.26 ± 0.39
CRIZOTINIB; 10 nM
  surviving fraction: 1.25 ± 0.42
CRIZOTINIB; 50 nM
  surviving fraction: 1.33 ± 0.42
CRIZOTINIB; 100 nM
  surviving fraction: 1.36 ± 0.47
CRIZOTINIB; 500 nM
  surviving fraction: 1.25 ± 0.46
CRIZOTINIB; 1000 nM
  surviving fraction: 1.17 ± 0.43
[1]; 0.5 nM
  surviving fraction: 0.927 ± 0.097
[1]; 1 nM
  surviving fraction: 0.981 ± 0.098
[1]; 5 nM
  surviving fraction: 1.01 ± 0.14
[1]; 10 nM
  surviving fraction: 1.02 ± 0.11
[1]; 50 nM
  surviving fraction: 0.841 ± 0.088
[1]; 100 nM
  surviving fraction: 0.911 ± 0.027
[1]; 500 nM
  surviving fraction: 0.892 ± 0.061
[1]; 1000 nM
  surviving fraction: 0.896 ± 0.042

## SUM149 BREAST
CRIZOTINIB; 0.5 nM
  surviving fraction: 1.08 ± 0.024
CRIZOTINIB; 1 nM
  surviving fraction: 1.05 ± 0.075
CRIZOTINIB; 10 nM
  surviving fraction: 0.96 ± 0.033
CRIZOTINIB; 50 nM
  surviving fraction: 1.01 ± 0.13
CRIZOTINIB; 500 nM
  surviving fraction: 0.817 ± 0.07
CRIZOTINIB; 1000 nM
  surviving fraction: 0.51 ± 0.072
[1]; 0.5 nM
  surviving fraction: 0.887 ± 0.032
[1]; 1 nM
  surviving fraction: 0.997 ± 0.037
[1]; 5 nM
  surviving fraction: 0.778 ± 0.039
[1]; 10 nM
  surviving fraction: 0.779 ± 0.1
[1]; 50 nM
  surviving fraction: 0.673 ± 0.067
[1]; 100 nM
  surviving fraction: 0.665 ± 0.088
[1]; 500 nM
  surviving fraction: 0.497 ± 0.033
[1]; 1000 nM
  surviving fraction: 0.494 ± 0.014
